Measurements taken from BindingDB's records for doi:10.1021/jm0009437 (Institut Curie, 2000).
pIC50: −log10 of the molar value.

Target: T1, Gag-Pol polyprotein [588-1027]/[588-1147] (Human immunodeficiency virus 1, UniProt P04585)
T1 construct: 588-1027; 588-1147
Test: HIV-1 RT Assay
Details: pH 8; 37 °C

Compound | pIC50
CCc1c(C)nc(O)c(N)c1Cc1cc(C)cc(C)c1 [3-amino-4-[(3,5-dimethylphenyl)methyl]-5-ethyl-6-methyl-1,2-dihydropyridin-2-one] | 7.00
CCc1c(C)nc(O)c(N)c1C(=O)c1cc(C)cc(C)c1 [3-amino-4-[(3,5-dimethylphenyl)carbonyl]-5-ethyl-6-methyl-1,2-dihydropyridin-2-one] | 7.00
CCc1c(C)[nH]c(=O)c([N+](=O)[O-])c1Sc1cc(C)cc(C)c1 [4-[(3,5-dimethylphenyl)sulfanyl]-5-ethyl-6-methyl-3-nitro-1,2-dihydropyridin-2-one] | 7.52
